How the values were obtained:
[1] = system: Mycoplasma gallisepticum MR-1 (wild strain, tylosin-resistant); assay: Anti-mycoplasma activity in vitro (MIC, broth dilution), strain MR-1; type: cell-based; conditions: Mg MR-1, 37° C., 7 days
Method in brief: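 Broth dilution in chick PPLO broth with 20% equine serum; 2-fold compound dilutions, inoculum diluted to 10^6 CCU/ml. Incubated 7 days at 37 °C; MIC recorded.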

[2] = system: Mycoplasma gallisepticum T-7-T (wild strain, tylosin-resistant); assay: Mycoplasma gallisepticum air-sac infection method in chicken, strain T-7-T; type: in vivo, Mycoplasma gallisepticum; SPF chicken (white leghorn);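 on Index of Isolation: index = (P×1 + Q×2 + R×3)/S with range 0 to 6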
Method in brief: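 9-day-old SPF white leghorn chickens, fasted one day, received tylosin-resistant M. gallisepticum T-7-T culture (usually diluted 100×) into the right air sac. Compound was given as a single forced oral dose by cannula immediately after infection, in mg/ml. At day 5, air-sac lesions (0–3) were scored as a weighted index and organisms were re-isolated from the air sacs and trachea.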

[3] = system: Mycoplasma gallisepticum S6 (standard strain); assay: Mycoplasma gallisepticum air-sac infection method in chicken, strain S6; type: in vivo, Mycoplasma gallisepticum; SPF chicken (white leghorn)
Method in brief: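 Right air sac of 9-day-old SPF white leghorn chickens (water/feed withheld 1 day) inoculated with 24-48 h culture diluted ~100×; compound given once orally by cannula right after infection. At day 5, air-sac lesions scored 0-3 (index = right + 2×left), and organisms isolated from both air sacs and trachea.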

[4] = 100 mg/kg × once oral, 10 mg/ml sol. b, inoculum 10^2
[5] = 200 mg/kg × once oral, 20 mg/ml sol. a, inoculum 1.9 × 10^5
[6] = 200 mg/kg × once oral, 20 mg/ml sol. c, inoculum 1.9 × 10^5
[7] = 50 mg/kg × once oral, 5 mg/ml sol. b, inoculum 6.3 × 10^4
[8] = 100 mg/kg × once oral, 10 mg/ml sol. b, inoculum 1.2 × 10^6
[9] = 100 mg/kg × once oral, 10 mg/ml sol. b, inoculum 6.3 × 10^4
[10] = 200 mg/kg × once oral, 20 mg/ml sol. a, inoculum 3.1 × 10^5
[11] = 200 mg/kg × once oral, 20 mg/ml sol. c, inoculum 3.1 × 10^5

O=c1cccccc1O [Tropolone, tropolone]
3: Isolation, T (trachea) [2, 5] | Mycoplasma Isolated Chickens [2, 5] | Change of air-sac, right: - (chickens) [3, 7]
5: Change of air-sac, left: - (chickens) [2, 5] | Change of air-sac, right: - (chickens) [2, 5] | Change of air-sac, left: - (chickens) [2, 6] | Change of air-sac, right: - (chickens) [2, 6] | Isolation, T (trachea) [2, 6] | Mycoplasma Isolated Chickens [2, 6] | Change of air-sac, left: - (chickens) [3, 7] | Change of air-sac, left: - (chickens) [3, 9] | Change of air-sac, left: - (chickens) [3, 10] | Change of air-sac, right: - (chickens) [3, 10] | Change of air-sac, left: - (chickens) [3, 11] | Change of air-sac, right: - (chickens) [3, 11]
4: Isolation, L (left air-sac) [2, 6] | Isolation, R (right air-sac) [2, 6] | Change of air-sac, right: - (chickens) [3, 9]
0.2: Index of Disease ([3]; 100 mg/kg × once oral, 10 mg/ml sol. b, inoculum 6.3 × 10^4, range 0-9.0) | Index of Isolation ([3]; 200 mg/kg × once oral, 20 mg/ml sol. a, inoculum 3.1 × 10^5, range 0-6.0)
5.2: Index of Isolation ([2]; 200 mg/kg × once oral, 20 mg/ml sol. c, inoculum 1.9 × 10^5, range 0-6.0)
0.39 µg/mL: MIC [1]
8: Change of air-sac, left: - (chickens) [2, 4] | Change of air-sac, right: - (chickens) [2, 4] | Change of air-sac, left: - (chickens) [3, 8] | Change of air-sac, right: - (chickens) [3, 8]
1: Isolation, L (left air-sac) [2, 4] | Isolation, T (trachea) [2, 4] | Change of air-sac, right: + (chickens) [3, 9] | Isolation, R (right air-sac) [3, 10] | Mycoplasma Isolated Chickens [3, 10]
0.40: Index of Isolation ([2]; 100 mg/kg × once oral, 10 mg/ml sol. b, inoculum 10^2, range 0-6.0)
0.4: Index of Disease ([3]; 50 mg/kg × once oral, 5 mg/ml sol. b, inoculum 6.3 × 10^4, range 0-9.0) | Index of Isolation ([3]; 50 mg/kg × once oral, 5 mg/ml sol. b, inoculum 6.3 × 10^4, trachea ND, range 0-6.0)
2.8: Index of Isolation ([2]; 200 mg/kg × once oral, 20 mg/ml sol. a, inoculum 1.9 × 10^5, range 0-6.0)
2: Mycoplasma Isolated Chickens [2, 4] | Isolation, L (left air-sac) [2, 5] | Isolation, R (right air-sac) [2, 5] | Change of air-sac, right: + (chickens) [3, 7] | Isolation, R (right air-sac) [3, 7] | Mycoplasma Isolated Chickens [3, 7]
0: Change of air-sac, left: + (chickens) [2, 4] | Change of air-sac, left: ++ (chickens) [2, 4] | Change of air-sac, left: +++ (chickens) [2, 4] | Change of air-sac, right: + (chickens) [2, 4] | Change of air-sac, right: ++ (chickens) [2, 4] | Change of air-sac, right: +++ (chickens) [2, 4] | Isolation, R (right air-sac) [2, 4] | Index of Disease ([2]; 100 mg/kg × once oral, 10 mg/ml sol. b, inoculum 10^2, range 0-9.0) | Change of air-sac, left: + (chickens) [2, 5] | Change of air-sac, left: ++ (chickens) [2, 5] | Change of air-sac, left: +++ (chickens) [2, 5] | Change of air-sac, right: + (chickens) [2, 5] | Change of air-sac, right: ++ (chickens) [2, 5] | Change of air-sac, right: +++ (chickens) [2, 5] | Index of Disease ([2]; 200 mg/kg × once oral, 20 mg/ml sol. a, inoculum 1.9 × 10^5, range 0-9.0) | Change of air-sac, left: + (chickens) [2, 6] | Change of air-sac, left: ++ (chickens) [2, 6] | Change of air-sac, left: +++ (chickens) [2, 6] | Change of air-sac, right: + (chickens) [2, 6] | Change of air-sac, right: ++ (chickens) [2, 6] | Change of air-sac, right: +++ (chickens) [2, 6] | Index of Disease ([2]; 200 mg/kg × once oral, 20 mg/ml sol. c, inoculum 1.9 × 10^5, range 0-9.0) | Change of air-sac, left: + (chickens) [3, 7] | Change of air-sac, left: ++ (chickens) [3, 7] | Change of air-sac, left: +++ (chickens) [3, 7] | Change of air-sac, right: ++ (chickens) [3, 7] | Change of air-sac, right: +++ (chickens) [3, 7] | Isolation, L (left air-sac) [3, 7] | Change of air-sac, left: + (chickens) [3, 8] | Change of air-sac, left: ++ (chickens) [3, 8] | Change of air-sac, left: +++ (chickens) [3, 8] | Change of air-sac, right: + (chickens) [3, 8] | Change of air-sac, right: ++ (chickens) [3, 8] | Change of air-sac, right: +++ (chickens) [3, 8] | Isolation, L (left air-sac) [3, 8] | Isolation, R (right air-sac) [3, 8] | Isolation, T (trachea) [3, 8] | Mycoplasma Isolated Chickens [3, 8] | Index of Isolation ([3]; 100 mg/kg × once oral, 10 mg/ml sol. b, inoculum 1.2 × 10^6, range 0-6.0) | Index of Disease ([3]; 100 mg/kg × once oral, 10 mg/ml sol. b, inoculum 1.2 × 10^6, range 0-9.0) | Change of air-sac, left: + (chickens) [3, 9] | Change of air-sac, left: ++ (chickens) [3, 9] | Change of air-sac, left: +++ (chickens) [3, 9] | Change of air-sac, right: ++ (chickens) [3, 9] | Change of air-sac, right: +++ (chickens) [3, 9] | Isolation, L (left air-sac) [3, 9] | Isolation, R (right air-sac) [3, 9] | Mycoplasma Isolated Chickens [3, 9] | Index of Isolation ([3]; 100 mg/kg × once oral, 10 mg/ml sol. b, inoculum 6.3 × 10^4, trachea ND, range 0-6.0) | Change of air-sac, left: + (chickens) [3, 10] | Change of air-sac, left: ++ (chickens) [3, 10] | Change of air-sac, left: +++ (chickens) [3, 10] | Change of air-sac, right: + (chickens) [3, 10] | Change of air-sac, right: ++ (chickens) [3, 10] | Change of air-sac, right: +++ (chickens) [3, 10] | Isolation, L (left air-sac) [3, 10] | Isolation, T (trachea) [3, 10] | Index of Disease ([3]; 200 mg/kg × once oral, 20 mg/ml sol. a, inoculum 3.1 × 10^5, range 0-9.0) | Change of air-sac, left: + (chickens) [3, 11] | Change of air-sac, left: ++ (chickens) [3, 11] | Change of air-sac, left: +++ (chickens) [3, 11] | Change of air-sac, right: + (chickens) [3, 11] | Change of air-sac, right: ++ (chickens) [3, 11] | Change of air-sac, right: +++ (chickens) [3, 11] | Isolation, L (left air-sac) [3, 11] | Isolation, R (right air-sac) [3, 11] | Isolation, T (trachea) [3, 11] | Mycoplasma Isolated Chickens [3, 11] | Index of Isolation ([3]; 200 mg/kg × once oral, 20 mg/ml sol. c, inoculum 3.1 × 10^5, range 0-6.0) | Index of Disease ([3]; 200 mg/kg × once oral, 20 mg/ml sol. c, inoculum 3.1 × 10^5, range 0-9.0)

From patent publication US4950686A, “Anti-mycoplasma agent” (Shionogi & Co., Ltd., priority 1986, dated 1990)
